Results taken from patent US4681890A, “3,4-dihydrobenzopyran compounds and pharmaceutical composition containing the same” (Kuraray Co., Ltd., priority 1984, dated 1987).

Experiments:
[1] = tested on: Total cholesterol in serum (hypercholesterolemic mice); test: Blood cholesterol lowering activity (total serum cholesterol in mice given a lipid emulsion); format: in vivo, dd-Male mice; details: for Serum cholesterol value: p.o., 17 hours after second administration
Description: dd-Male mice weighing about 25 g (one group: 10 mice) were allowed to fast for 12 hours, and thereto was orally administered a lipid emulsion (olive oil 32.7%, cholesterol 2.5%, sodium cholate 1.8%, sucrose 41.9%, and water 21.1%) in a dose of 25.5 ml/kg. A suspension of a test compound in gum arabic was orally administered to the mice twice, i.e. immediately after and […] after the administration of the lipid emulsion. 17 hours after the second administration of test compound, blood was collected from descending abdominal aorta under ether anesthesia. Total cholesterol in serum was measured by COD-p-chlorophenol colorimetry. As a reference compound, there was used Nicomol (chemical name: 2,2,6,6-tetrakis(nicotinoyloxymethyl)cyclohexanol) which is commercially available anticholesteremic agent.
Serum cholesterol values at 17 hours after the second administration of test compound were compared with the serum cholesterol values in normal mice and hypercholesterolemic mice.

Acute toxicity (LD50) = details: mouse, in vivo; mice, oral administration
Description: The compounds of this invention show a low toxicity. For instance, Compound 1 and Compound 2 have LD50 of more than 5,000 mg/kg in mice (by oral administration).

[2] = tested on: ornithine carbamyl transferase (OCT) in serum, ethanol-administered mice; test: Activity against alcoholic hepatic disease (serum OCT activity); format: in vivo, dd-Male mice
Description: dd-Male mice (4 weeks age, weighing about 15 g, one group: 10 mice) were fed with a hyperlipid feed [composition: cholesterol 1.0%, sodium cholate 0.5%, butter 5.0%, sucrose 30.0%, casein 10.0%, and M powder feed (manufactured by Oriental Yeast Co., Ltd., Japan) 53.5%] for 4 weeks. During the feeding, a suspension of a test compound in gum arabic and a 20% aqueous ethanol (15 ml/kg) were orally administered twice a day (morning and evening). After 4 weeks, mice were subjected to laparotomy under ether anesthesia, and blood was collected from the descending abdominal aorta. The blood thus collected was centrifuged at 3,000 r.p.m. for 15 minutes, and the enzymatic activity of ornithine carbamyl transferase (OCT) was measured with OCT-Test Wako (manufactured by Wako Pure Chemical Industries, Ltd., Japan).
The OCT activity in serum of mice which were administered test compounds was compared with the OCT activity in serum of normal mice and in control mice which were administered only 20% aqueous ethanol.

[3] = tested on: glutamic oxaloacetic transaminase (GOT) in serum, CCl4-administered mice; test: Activity against carbon tetrachloride-induced hepatic disease (serum GOT); format: in vivo, dd male mice
Description: (§1) To dd male mice weighing 18-20 g (one group: 10 mice) was orally administered a suspension of a test compound in gum arabic twice or three times per day. On the third day, 1% carbon tetrachloride (v/v % in olive oil) was subcutaneously injected at the back of the mice in a dose of 2 ml/kg one hour after the last administration of test compound. 19 hours after the injection of CCl4, a suspendion of a test compound in gum arabic was orally administerd. After one hour, the mice were subjected to laparotomy under ether anesthesia and blood was collected from the descending abdominal aorta. The blood thus collected was centrifuged at 3,000 r.p.m. for 15 minutes. The enzymatic activities of glutamic oxaloacetic transaminase (GOT) and glutamic pyruvic transaminase (GPT) in serum were measured with S.TA-Test Wako (manufactured by Wako Pure Chemical Industries, Ltd., Japan).
(§2) The activities of GOT and GPT in serum of the mice which were administered test compounds were compared with the GOT and GPT activities in serum of normal mice and 1% CCl4 (v/v % in olive oil)-administered mice.

[4] = tested on: glutamic pyruvic transaminase (GPT) in serum, CCl4-administered mice; test: Activity against carbon tetrachloride-induced hepatic disease (serum GPT); format: in vivo, dd male mice
Description: as §1, §2

[5] = tested on: blood cholesterol concentration; details: known agents, background; cited from earlier work

For `Cc1c(C)c2c(c(C)c1O)CCC(C)(CCOC(=O)c1cccnc1)O2` (centres unmarked) [Compound 1, 3,4-dihydro-2-nicotinoyloxyethyl-2,5,7,8-tetramethyl-2H-benzopyran-6-ol], the Serum cholesterol value ([1]; Table 1, 355 mg/kg, normal 98.6 ± 10.8, hypercholesterolemic 172.2 ± 8.6) was 130.7 ± 11.3 mg/dL and the LD50 (Acute toxicity (LD50)) was greater than 5000 mg/kg.
In the case of `Cc1c(C)c2c(c(C)c1OC(=O)c1cccnc1)CCC(C)(CCOC(=O)c1cccnc1)O2` (centres unmarked) [Compound 2, 3,4-dihydro-2-nicotinoyloxyethyl-2,5,7,8-tetramethyl-2H-benzopyran-6-yl nicotinate], the Serum cholesterol value ([1]; Table 2, 300 mg/kg, normal 101.0 ± 5.8, hypercholesterolemic 194.3 ± 9.5) is reported as 139.6 ± 9.3 mg/dL, the “OCT activity unit (mean ± S.E.)” value ([2]; Table 5, 300 mg/kg, p.o., twice a day, 4 weeks, normal 5.1 ± 3.2, ethanol-administered 122.5 ± 17.0) is reported as 79.6 ± 12.2 unit and the “GOT activity (average)” value ([3]; Table 6, 300 mg/kg, p.o., normal 87.9 ± 5.3, CCl4-administered 914.3 ± 195.1) is reported as 582.9 ± 59.8. The “GPT activity (average)” value ([4]; Table 6, 300 mg/kg, p.o., normal 74.0 ± 16.3, CCl4-administered 1251.4 ± 285.4) was 765.7 ± 84.4 and the LD50 (Acute toxicity (LD50)) was greater than 5000 mg/kg.
Work on `Cc1c(C)c2c(c(C)c1OC(=O)c1cccnc1)CCC(C)(CCO)O2` (centres unmarked) [Compound 3] yielded a Serum cholesterol value ([1]; Table 4, 355 mg/kg, normal 111.3 ± 8.6, hypercholesterolemic 165.0 ± 13.4) of 144.0 ± 10.5 mg/dL.
In the case of `Cc1c(C)c2c(c(C)c1O)CCC(C)(COC(=O)c1cccnc1)O2` (centres unmarked) [Compound 4], the Serum cholesterol value ([1]; Table 1, 341 mg/kg, normal 98.6 ± 10.8, hypercholesterolemic 172.2 ± 8.6) is reported as 159.4 ± 13.4 mg/dL.
For `Cc1c(C)c2c(c(C)c1OC(=O)c1cccnc1)CCC(C)(COC(=O)c1cccnc1)O2` (centres unmarked) [Compound 5, 3,4-dihydro-2-nicotinoyloxymethyl-2,5,7,8-tetramethyl-2H-benzopyran-6-yl nicotinate], the Serum cholesterol value ([1]; Table 1, 452 mg/kg, normal 98.6 ± 10.8, hypercholesterolemic 172.2 ± 8.6) was 127.9 ± 14.2 mg/dL, the “cholesterol lowering activity compared with Nicomol” value ([1]; relative to Nicomol) was “about two times higher cholesterol lowering activity than Nicomol” and the “inhibition of increase of OCT activity induced by alcohol” value ([2]; in words) was “excellent inhibition of increase of OCT activity induced by alcohol in a similar degree to that of Compound 2”. The “inhibition of increase of GOT activity induced by CCl4” value ([3]; in words) was “excellent inhibition of increase of GOT and GPT activities induced by CCl4 in a similar degree to that of Compound 2” and the “inhibition of increase of GPT activity induced by CCl4” value ([4]; in words) was “excellent inhibition of increase of GOT and GPT activities induced by CCl4 in a similar degree to that of Compound 2”.
Compound `Cc1c(C)c2c(c(C)c1OC(=O)c1cccnc1)CCC(C)(CCCOC(=O)c1cccnc1)O2` (centres unmarked) [Compound 6, 3,4-dihydro-2-nicotinoyloxypropyl-2,5,7,8-tetramethyl-2H-benzopyran-6-yl nicotinate] has a Serum cholesterol value ([1]; Table 1, 474 mg/kg, normal 98.6 ± 10.8, hypercholesterolemic 172.2 ± 8.6) of 123.8 ± 13.8 mg/dL.
With `Cc1c(C)c2c(c(C)c1OC(=O)c1cccnc1)CCC(C)(CC(COC(=O)c1cccnc1)OC(=O)c1cccnc1)O2` (centres unmarked) [Compound 7] the Serum cholesterol value ([1]; Table 3, 571 mg/kg, normal 109.1 ± 9.3, hypercholesterolemic 164.0 ± 12.8) was 143.6 ± 10.8 mg/dL.
Compound `O=C(OCC1(COC(=O)c2cccnc2)CCCC(COC(=O)c2cccnc2)(COC(=O)c2cccnc2)C1O)c1cccnc1` [Nicomol, 2,2,6,6-tetrakis(nicotinoyloxymethyl)cyclohexanol, reference compound] has a Serum cholesterol value ([1]; Table 1, 640 mg/kg, normal 98.6 ± 10.8, hypercholesterolemic 172.2 ± 8.6) of 146.1 ± 14.7 mg/dL, a Serum cholesterol value ([1]; Table 2, 640 mg/kg, normal 101.0 ± 5.8, hypercholesterolemic 194.3 ± 9.5) of 139.4 ± 4.4 mg/dL and a Serum cholesterol value ([1]; Table 3, 640 mg/kg, normal 109.1 ± 9.3, hypercholesterolemic 164.0 ± 12.8) of 138.3 ± 12.5 mg/dL. The Serum cholesterol value ([1]; Table 4, 640 mg/kg, normal 111.3 ± 8.6, hypercholesterolemic 165.0 ± 13.4) was 142.7 ± 11.5 mg/dL and the “blood cholesterol concentration lowering” value [5] was “not necessarily sufficient for lowering blood cholesterol”.
For `O=C(O)c1cccnc1` [nicotinic acid], the “blood cholesterol concentration lowering” value [5] is listed as “temporarily lowered, but the lowered concentration is not sustained”.
For `O=C(OCC(COC(=O)c1cccnc1)(COC(=O)c1cccnc1)COC(=O)c1cccnc1)c1cccnc1` [pentaerythritol tetranicotinate], the “blood cholesterol concentration lowering” value [5] is listed as “not necessarily sufficient for lowering blood cholesterol”.
